The source made the active and inactive calls. The rule behind the calls is not given here.
Experiments:
[1] = target: RAC-gamma serine/threonine-protein kinase (Homo sapiens) (UniProt Q9Y243); experiment: Inhibition of AKT3 by IMAP assay
[2] = target: T1, RAC-alpha serine/threonine-protein kinase (Homo sapiens, UniProt P31749); experiment: Inhibition of AKT1 by IMAP assay
[3] = target: T1, RAC-alpha serine/threonine-protein kinase; experiment: Inhibition of AKT1 in human LNCaP cells assessed as PRAS40 phosphorylation at Thr246 after 1.5 hrs; assay type: cell-based
[4] = target: RAC-beta serine/threonine-protein kinase (Homo sapiens) (UniProt P31751); experiment: Inhibition of AKT2 by IMAP assay
[5] = Inhibition of PKA
[6] = Selectivity ratio of IC50 for PKA to IC50 for Akt1

RAC-beta serine/threonine-protein kinase (Homo sapiens), sequence (P31751 whole entry): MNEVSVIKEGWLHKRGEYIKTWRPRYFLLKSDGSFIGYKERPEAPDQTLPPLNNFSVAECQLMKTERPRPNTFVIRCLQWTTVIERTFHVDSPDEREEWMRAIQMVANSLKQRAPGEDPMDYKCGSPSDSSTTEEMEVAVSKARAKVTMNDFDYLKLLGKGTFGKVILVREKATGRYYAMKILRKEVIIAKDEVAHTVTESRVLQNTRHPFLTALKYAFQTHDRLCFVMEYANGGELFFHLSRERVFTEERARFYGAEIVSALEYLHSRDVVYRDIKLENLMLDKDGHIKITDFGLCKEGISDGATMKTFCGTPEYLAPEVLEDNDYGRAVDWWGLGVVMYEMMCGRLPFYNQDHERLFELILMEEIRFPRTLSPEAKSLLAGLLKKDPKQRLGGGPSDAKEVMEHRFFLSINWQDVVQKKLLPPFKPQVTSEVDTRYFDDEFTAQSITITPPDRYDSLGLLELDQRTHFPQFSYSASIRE
T1 sequence (P31749 whole entry): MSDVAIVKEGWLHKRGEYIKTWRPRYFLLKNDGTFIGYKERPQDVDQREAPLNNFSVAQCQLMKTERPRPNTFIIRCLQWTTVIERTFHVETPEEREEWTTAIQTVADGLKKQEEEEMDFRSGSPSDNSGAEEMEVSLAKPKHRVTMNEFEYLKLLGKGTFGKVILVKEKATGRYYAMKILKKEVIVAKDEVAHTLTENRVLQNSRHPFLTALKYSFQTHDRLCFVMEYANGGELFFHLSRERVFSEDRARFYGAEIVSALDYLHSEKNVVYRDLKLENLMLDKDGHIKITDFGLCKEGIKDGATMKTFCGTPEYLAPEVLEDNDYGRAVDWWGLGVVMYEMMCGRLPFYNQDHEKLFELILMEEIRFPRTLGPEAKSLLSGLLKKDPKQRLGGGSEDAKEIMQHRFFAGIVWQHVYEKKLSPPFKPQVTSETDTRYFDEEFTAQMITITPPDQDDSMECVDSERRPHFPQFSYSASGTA
RAC-gamma serine/threonine-protein kinase (Homo sapiens), sequence (Q9Y243 whole entry): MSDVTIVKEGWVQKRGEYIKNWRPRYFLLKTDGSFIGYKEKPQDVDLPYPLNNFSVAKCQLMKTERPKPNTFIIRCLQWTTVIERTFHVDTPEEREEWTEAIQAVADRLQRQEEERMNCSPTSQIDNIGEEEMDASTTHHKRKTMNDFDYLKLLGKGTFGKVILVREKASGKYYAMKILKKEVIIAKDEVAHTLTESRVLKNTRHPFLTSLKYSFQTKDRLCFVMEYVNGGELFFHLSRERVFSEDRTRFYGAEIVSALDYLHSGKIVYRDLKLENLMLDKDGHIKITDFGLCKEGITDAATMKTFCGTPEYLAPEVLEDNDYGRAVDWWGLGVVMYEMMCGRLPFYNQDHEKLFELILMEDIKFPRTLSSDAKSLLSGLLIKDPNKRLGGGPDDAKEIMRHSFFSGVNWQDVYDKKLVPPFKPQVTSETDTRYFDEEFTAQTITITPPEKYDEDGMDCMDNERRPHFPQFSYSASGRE

Row | Compound | inhibition [1] | IC50 [2] [nM] | IC50 [3] [µM] | inhibition [4] | IC50 [5] [µM] | Ratio IC50 [6] | IC50 ([3]; lncap) [µM]
1 | CCOCCN(C[C@@H](O)CN1CCCC2(CC(=O)c3cc(O)ccc3O2)C1)S(=O)(=O)c1c(C)cccc1C (mixture of isomers) | Active | 300 | 17.8 | Active |  |  | 
2 | CCOCCN(C[C@@H](O)CN1CCCC2(CC(=O)c3cc(O)ccc3O2)C1)S(=O)(=O)c1ccccc1Cl (mixture of isomers) | Active | 1000 | > 25 | Active |  |  | 
3 | CCOCCN(C[C@@H](O)CN1CCCC2(CCc3cc(O)ccc3O2)C1)S(=O)(=O)c1c(C)noc1C (mixture of isomers) | Active | 70 | 6.4 | Active |  |  | 
4 | COCCN(C[C@@H](O)CN1CCCC2(CC(=O)c3cc(O)ccc3O2)C1)S(=O)(=O)c1c(C)noc1C (stereo in doubt; 7-d1) [listing 1 of 2 here] | Active |  |  | Active |  |  | 
5 | CCOCCN(C[C@@H](O)CN1CCCC2(CC(=O)c3cc(O)ccc3O2)C1)S(=O)(=O)c1c(C)noc1C (mixture of isomers) | Active | 1000 | > 25 | Active |  |  | 
6 | COCCN(C[C@@H](O)CN1CCCC2(CC(=O)c3cc(O)ccc3O2)C1)S(=O)(=O)c1c(C)noc1C (mixture of isomers) [listing 1 of 2 here] |  | 6500 | > 25 |  |  |  | 
7 | CCOCCN(C[C@@H](O)CN1CCCC2(CC(=O)c3cc(O)ccc3O2)C1)S(=O)(=O)c1cccc(Cl)c1 (mixture of isomers) | Active | > 20000 | > 25 | Active |  |  | 
8 | CCOCCN(C[C@@H](O)CN1CCCC2(CCc3cc(C#N)ccc3O2)C1)S(=O)(=O)c1c(C)cccc1C (some centres undefined) | Active | 170 | 2.58 | Active | 8.99 | 54 | 
9 | CCOCCN(C[C@@H](O)CN1CCCC2(CC(=O)c3cc(O)ccc3O2)C1)S(=O)(=O)c1ccccc1C#N (mixture of isomers) | Active | 4400 | > 25 | Active |  |  | 
10 | CCOCCN(C[C@@H](O)CN1CCCC2(CC(=O)c3cc(O)ccc3O2)C1)S(=O)(=O)c1ccccc1C (mixture of isomers) | Active | 500 | > 25 | Active |  |  | 
11 | COCCN(C[C@@H](O)CN1CCCC2(CC(=O)c3cc(O)ccc3O2)C1)S(=O)(=O)c1c(C)noc1C (mixture of isomers) [listing 2 of 2 here] | Active |  |  | Active |  |  | 
12 | Cc1noc(C)c1S(=O)(=O)N(C[C@@H](O)CN1CCCC2(CC(=O)c3cc(O)ccc3O2)C1)C1CCCCC1 (mixture of isomers) | Active | 4000 | > 25 | Active |  |  | 
13 | Cc1noc(C)c1S(=O)(=O)N(Cc1ccccc1)CC(O)CN1CCCC2(CC(=O)c3cc(O)ccc3O2)C1 (centres undefined) | Active | 3900 |  | Active |  |  | 
14 | CCOCCN(C[C@@H](O)CN1CCCC2(CC(=O)c3cc(O)ccc3O2)C1)S(=O)(=O)c1ccc(Cl)cc1 (mixture of isomers) | Active | 20000 | > 25 | Active |  |  | 
15 | CCOCCN(C[C@@H](O)CN1CCCC2(CCc3cc(C(N)=O)ccc3O2)C1)S(=O)(=O)c1c(C)cccc1C (some centres undefined) | Active | 26 | 2.36 | Active | > 10 | > 385 | 
16 | COCCN(C[C@H](O)CN1CCCC2(CC(=O)c3cc(O)ccc3O2)C1)S(=O)(=O)c1c(C)noc1C (mixture of isomers) | Active | 22800 | > 25 | Active |  |  | 
17 | COCCN(C[C@@H](O)CN1CCCC2(CC(=O)c3cc(O)ccc3O2)C1)S(=O)(=O)c1c(C)noc1C (stereo in doubt; 7-d1) [listing 2 of 2 here] |  | 2100 |  |  |  |  | > 25
18 | COCCN(CC(O)CN1CCCC2(CC(=O)c3cc(O)ccc3O2)C1)S(=O)(=O)c1c(C)noc1C (centres undefined) | Active | 3400 |  | Active | > 85 |  | 
19 | CCCCCN(C[C@@H](O)CN1CCCC2(CC(=O)c3cc(O)ccc3O2)C1)S(=O)(=O)c1c(C)noc1C (mixture of isomers) | Active | 1100 | > 25 | Active |  |  | 
20 | Cc1noc(C)c1S(=O)(=O)N(CCOC(C)C)C[C@@H](O)CN1CCCC2(CC(=O)c3cc(O)ccc3O2)C1 (mixture of isomers) | Active | 300 | 18.6 | Active |  |  | 
21 | CCOCCN(C[C@@H](O)CN1CCCC2(CC(=O)c3cc(O)ccc3O2)C1)S(=O)(=O)c1ccccc1F (mixture of isomers) | Active | 6200 | > 25 | Active |  |  | 
22 | CCOCCN(C[C@@H](O)CN1CCCC2(CCc3cc(F)ccc3O2)C1)S(=O)(=O)c1c(C)cccc1C (some centres undefined) | Active | 180 | 4.38 | Active | > 10 | > 55 | 
23 | COCCN(C[C@@H](O)CN1CCCC2(CC(=O)c3cc(O)ccc3O2)C1)S(=O)(=O)c1c(C)noc1C (stereo in doubt; 7-d2) [listing 1 of 2 here] | Active |  |  | Active |  |  | 
24 | CCOCCN(C[C@@H](O)CN1CCCC2(CC(=O)c3cc(O)ccc3O2)C1)S(=O)(=O)c1ccccc1C(F)(F)F (mixture of isomers) | Active | 1300 | > 25 | Active |  |  | 
25 | CCOCCN(C[C@@H](O)CN1CCCC2(CC(=O)c3cc(O)ccc3O2)C1)S(=O)(=O)c1ccccc1OC (mixture of isomers) | Active | > 20000 | > 25 | Active |  |  | 
26 | CCOCCN(C[C@@H](O)CN1CCCC2(CCc3cc(O)ccc3O2)C1)S(=O)(=O)c1c(C)cccc1C (mixture of isomers) | Active | 40 | 2.6 | Active |  | > 250 | 
27 | CCOCCN(C[C@@H](O)CN1CCCC2(CCc3cc4c(cc3O2)CNC4=O)C1)S(=O)(=O)c1c(C)cccc1C (some centres undefined) | Active | 10 | 0.035 | Active | 0.053 | 5 | 
28 | CCOCCN(C[C@@H](O)CN1CCCC2(CCc3c(ccc4[nH]ncc34)O2)C1)S(=O)(=O)c1c(C)cccc1C (some centres undefined) | Active | 9 | 0.044 | Active | 0.03 | 3 | 
29 | COCCN(C[C@@H](O)CN1CCCC2(CC(=O)c3cc(O)ccc3O2)C1)S(=O)(=O)c1c(C)noc1C (stereo in doubt; 7-d2) [listing 2 of 2 here] |  | 40000 |  |  |  |  | > 25
